Data: patent US20100267561A1, “HERBICIDAL PYRIDAZINONE DERIVATIVES” (priority 2007, published 2010)

How the values were obtained:
Experiment in all cases: Test E pre-/postemergence plant response
Assay type in all cases: in vivo
[1] = tested on: large crabgrass (Digitaria sanguinalis); settings: scale 0 to 100
Source text: (§1) Seeds of plant species selected from bermudagrass (Cynodon dactylon), Surinam grass (Brachiaria decumbens), large crabgrass (Digitaria sanguinalis), green foxtail (Setaria viridis), goosegrass (Eleusine indica), johnsongrass (Sorghum halepense), kochia (Kochia scoparia), pitted morningglory (Ipomoea lacunosa), purple nutsedge (Cyperus rotundus), common ragweed (Ambrosia elation), black mustard (Brassica nigra), guineagrass (Panicum maximum), dallisgrass (Paspalum dilatatum), barnyardgrass (Echinochloa crus-galli), southern (S.) sandbur (Cenchrus echinatus), common sowthistle (Sonchus oleraceous), prickly sida (Sida spinosa), Italian ryegrass (Lolium multiflorum), common purslane (Portulaca oleracea), broadleaf signalgrass (Brachiaria platyphylla), common groundsel (Senecio vulgaris), common chickweed (Stellaria media), Virginia (V.) dayflower (Commelina virginica), tropical (T.) spiderwort (Commelina benghalensis), annual bluegrass (Poa annua), naked crabgrass (Digitaria nuda), itchgrass (Rottboellia cochinchinensis), quackgrass (Elytrigia repens), Canada horseweed (Conyza canadensis), field bindweed (Convolvulus arvensis), spanishneedles (Bidens bipinnata), common mallow (Malva sylvestris) and Russian thistle (Salsola kali) were planted and treated preemergence with test chemicals formulated in a non-phytotoxic solvent mixture which included a surfactant. At the same time, plants selected from these weed species were treated with postemergence applications of some of the test chemicals formulated in the same manner. Plants ranged in height from 2 to 18 cm (1- to 4-leaf stage) for postemergence treatments.
(§2) Treated plants and controls were maintained in a greenhouse for 14 to 21 days, after which time all species were compared to controls and visually evaluated. Plant response ratings, summarized in Table E, are based on a scale of 0 to 100 where 0 is no effect and 100 is complete control. A dash (-) response means no test result.

[2] = tested on: annual bluegrass (Poa annua); settings: scale 0 to 100
Source text: as §1, §2

[3] = tested on: quackgrass (Elytrigia repens); settings: scale 0 to 100
Source text: as §1, §2

[4] = tested on: green foxtail (Setaria viridis); settings: scale 0 to 100
Source text: as §1, §2

[5] = tested on: surinam grass (Brachiaria decumbens); settings: scale 0 to 100
Source text: as §1, §2

[6] = tested on: johnsongrass (Sorghum halepense); settings: scale 0 to 100
Source text: as §1, §2

[7] = tested on: common chickweed (Stellaria media); settings: 4 g ai/ha, Postemergence, scale 0 to 100
Source text: as §1, §2

[8] = tested on: bermudagrass (Cynodon dactylon); settings: scale 0 to 100
Source text: as §1, §2

[9] = tested on: broadleaf signalgrass (Brachiaria platyphylla); settings: scale 0 to 100
Source text: as §1, §2

[10] = tested on: common mallow (Malva sylvestris); settings: scale 0 to 100
Source text: as §1, §2

[11] = tested on: naked crabgrass (Digitaria nuda); settings: scale 0 to 100
Source text: as §1, §2

[12] = tested on: itchgrass (Rottboellia cochinchinensis); settings: scale 0 to 100
Source text: as §1, §2

[13] = tested on: purple nutsedge (Cyperus rotundus); settings: scale 0 to 100
Source text: as §1, §2

[14] = tested on: pitted morningglory (Ipomoea lacunosa); settings: scale 0 to 100
Source text: as §1, §2

[15] = tested on: Italian ryegrass (Lolium multiflorum); settings: scale 0 to 100
Source text: as §1, §2

CCc1cc(-c2ccc(C(F)(F)F)cc2)nn1-c1c(OS(C)(=O)=O)cnn(C)c1=O [Compound 19]
Plant response rating, Crabgrass, Large ([1]; 4 g ai/ha, Postemergence): 30
Plant response rating, Crabgrass, Large ([1]; 8 g ai/ha, Preemergence): 15
Plant response rating, Crabgrass, Large ([1]; 16 g ai/ha, Preemergence): 95
Plant response rating, Crabgrass, Large ([1]; 31 g ai/ha, Preemergence): 100
Plant response rating, Crabgrass, Large ([1]; Postemergence, 8 g ai/ha): 40
Plant response rating, Crabgrass, Large ([1]; Postemergence, 16 g ai/ha): 60
Plant response rating, Crabgrass, Large ([1]; Postemergence, 31 g ai/ha): 80
Plant response rating, Crabgrass, Large ([1]; Preemergence, 4 g ai/ha): 0
Plant response rating, Bluegrass ([2]; 4 g ai/ha, Postemergence): 0
Plant response rating, Bluegrass ([2]; 8 g ai/ha, Preemergence): 0
Plant response rating, Bluegrass ([2]; 16 g ai/ha, Preemergence): 0
Plant response rating, Bluegrass ([2]; 31 g ai/ha, Preemergence): 0
Plant response rating, Bluegrass ([2]; Postemergence, 8 g ai/ha): 0
Plant response rating, Bluegrass ([2]; Postemergence, 16 g ai/ha): 0
Plant response rating, Bluegrass ([2]; Postemergence, 31 g ai/ha): 0
Plant response rating, Bluegrass ([2]; Preemergence, 4 g ai/ha): 0
Plant response rating, Quackgrass ([3]; 4 g ai/ha, Postemergence): 0
Plant response rating, Quackgrass ([3]; 16 g ai/ha, Preemergence): 65
Plant response rating, Quackgrass ([3]; 31 g ai/ha, Preemergence): 80
Plant response rating, Quackgrass ([3]; Postemergence, 8 g ai/ha): 15
Plant response rating, Quackgrass ([3]; Postemergence, 16 g ai/ha): 75
Plant response rating, Quackgrass ([3]; Postemergence, 31 g ai/ha): 80
Plant response rating, Quackgrass ([3]; Preemergence, 4 g ai/ha): 0
Plant response rating, Foxtail, Green ([4]; 4 g ai/ha, Postemergence): 20
Plant response rating, Foxtail, Green ([4]; 8 g ai/ha, Preemergence): 40
Plant response rating, Foxtail, Green ([4]; 16 g ai/ha, Preemergence): 65
Plant response rating, Foxtail, Green ([4]; 31 g ai/ha, Preemergence): 100
Plant response rating, Foxtail, Green ([4]; Postemergence, 8 g ai/ha): 90
Plant response rating, Foxtail, Green ([4]; Postemergence, 16 g ai/ha): 95
Plant response rating, Foxtail, Green ([4]; Postemergence, 31 g ai/ha): 100
Plant response rating, Foxtail, Green ([4]; Preemergence, 4 g ai/ha): 0
Plant response rating, Surinam Grass ([5]; 4 g ai/ha, Postemergence): 35
Plant response rating, Surinam Grass ([5]; 16 g ai/ha, Preemergence): 100
Plant response rating, Surinam Grass ([5]; 31 g ai/ha, Preemergence): 100
Plant response rating, Surinam Grass ([5]; Postemergence, 8 g ai/ha): 70
Plant response rating, Surinam Grass ([5]; Postemergence, 16 g ai/ha): 95
Plant response rating, Surinam Grass ([5]; Postemergence, 31 g ai/ha): 100
Plant response rating, Surinam Grass ([5]; Preemergence, 4 g ai/ha): 50
Plant response rating, Johnsongrass ([6]; 4 g ai/ha, Postemergence): 90
Plant response rating, Johnsongrass ([6]; 16 g ai/ha, Preemergence): 95
Plant response rating, Johnsongrass ([6]; 31 g ai/ha, Preemergence): 98
Plant response rating, Johnsongrass ([6]; Postemergence, 8 g ai/ha): 90
Plant response rating, Johnsongrass ([6]; Postemergence, 16 g ai/ha): 100
Plant response rating, Johnsongrass ([6]; Postemergence, 31 g ai/ha): 100
Plant response rating, Johnsongrass ([6]; Preemergence, 4 g ai/ha): 75
Plant response rating, Chickweed [7]: 0
Plant response rating, Bermudagrass ([8]; 4 g ai/ha, Postemergence): 15
Plant response rating, Bermudagrass ([8]; 8 g ai/ha, Preemergence): 60
Plant response rating, Bermudagrass ([8]; 16 g ai/ha, Preemergence): 95
Plant response rating, Bermudagrass ([8]; 31 g ai/ha, Preemergence): 100
Plant response rating, Bermudagrass ([8]; Postemergence, 8 g ai/ha): 35
Plant response rating, Bermudagrass ([8]; Postemergence, 16 g ai/ha): 35
Plant response rating, Bermudagrass ([8]; Postemergence, 31 g ai/ha): 80
Plant response rating, Bermudagrass ([8]; Preemergence, 4 g ai/ha): 25
Plant response rating, Signalgrass ([9]; 4 g ai/ha, Postemergence): 65
Plant response rating, Signalgrass ([9]; 16 g ai/ha, Preemergence): 80
Plant response rating, Signalgrass ([9]; 31 g ai/ha, Preemergence): 80
Plant response rating, Signalgrass ([9]; Postemergence, 8 g ai/ha): 80
Plant response rating, Signalgrass ([9]; Postemergence, 16 g ai/ha): 98
Plant response rating, Signalgrass ([9]; Postemergence, 31 g ai/ha): 98
Plant response rating, Signalgrass ([9]; Preemergence, 4 g ai/ha): 40
Plant response rating, Mallow ([10]; 4 g ai/ha, Postemergence): 0
Plant response rating, Mallow ([10]; 16 g ai/ha, Preemergence): 0
Plant response rating, Mallow ([10]; 31 g ai/ha, Preemergence): 0
Plant response rating, Mallow ([10]; Postemergence, 8 g ai/ha): 0
Plant response rating, Mallow ([10]; Postemergence, 16 g ai/ha): 0
Plant response rating, Mallow ([10]; Postemergence, 31 g ai/ha): 0
Plant response rating, Crabgrass, Naked ([11]; 4 g ai/ha, Postemergence): 40
Plant response rating, Crabgrass, Naked ([11]; 8 g ai/ha, Preemergence): 98
Plant response rating, Crabgrass, Naked ([11]; 31 g ai/ha, Preemergence): 98
Plant response rating, Crabgrass, Naked ([11]; Postemergence, 8 g ai/ha): 85
Plant response rating, Crabgrass, Naked ([11]; Postemergence, 16 g ai/ha): 90
Plant response rating, Crabgrass, Naked ([11]; Postemergence, 31 g ai/ha): 98
Plant response rating, Crabgrass, Naked ([11]; Preemergence, 4 g ai/ha): 35
Plant response rating, Itchgrass ([12]; 4 g ai/ha, Postemergence): 0
Plant response rating, Itchgrass ([12]; 16 g ai/ha, Preemergence): 65
Plant response rating, Itchgrass ([12]; 31 g ai/ha, Preemergence): 80
Plant response rating, Itchgrass ([12]; Postemergence, 8 g ai/ha): 20
Plant response rating, Itchgrass ([12]; Postemergence, 16 g ai/ha): 70
Plant response rating, Itchgrass ([12]; Postemergence, 31 g ai/ha): 80
Plant response rating, Itchgrass ([12]; Preemergence, 4 g ai/ha): 10
Plant response rating, Nutsedge, Purple ([13]; 4 g ai/ha, Postemergence): 0
Plant response rating, Nutsedge, Purple ([13]; Postemergence, 16 g ai/ha): 0
Plant response rating, Nutsedge, Purple ([13]; Preemergence, 4 g ai/ha): 0
Plant response rating, Morningglory ([14]; 4 g ai/ha, Postemergence): 0
Plant response rating, Morningglory ([14]; 16 g ai/ha, Preemergence): 0
Plant response rating, Morningglory ([14]; 31 g ai/ha, Preemergence): 0
Plant response rating, Morningglory ([14]; Postemergence, 8 g ai/ha): 0
Plant response rating, Morningglory ([14]; Postemergence, 16 g ai/ha): 0
Plant response rating, Morningglory ([14]; Postemergence, 31 g ai/ha): 0
Plant response rating, Morningglory ([14]; Preemergence, 4 g ai/ha): 0
Plant response rating, Ryegrass, Italian ([15]; 4 g ai/ha, Postemergence): 50
Plant response rating, Ryegrass, Italian ([15]; 16 g ai/ha, Preemergence): 100
Plant response rating, Ryegrass, Italian ([15]; 31 g ai/ha, Preemergence): 100
Plant response rating, Ryegrass, Italian ([15]; Postemergence, 8 g ai/ha): 90
Plant response rating, Ryegrass, Italian ([15]; Postemergence, 16 g ai/ha): 100
Plant response rating, Ryegrass, Italian ([15]; Postemergence, 31 g ai/ha): 100
Plant response rating, Ryegrass, Italian ([15]; Preemergence, 4 g ai/ha): 65
